The values below come from patent publication US10280465B2, “Biomarkers for predicting relapse in multiple sclerosis” (The United States of America as represented by the …, priority 2014, dated 2019).

In one assay the test system is RRMS. Nature of the assay: Clinical response to glatiramer acetate in RRMS patients over 2 years. The format is in vivo, human. As to conditions: 15 RRMS patients, 20 mg subcutaneously every day for 2 years. From the text:
A total of 15 patients with RRMS were enrolled in the study. The patients were recruited from the University of Maryland Multiple Sclerosis Center. The mean age was 40 (range, 22-60), and consisted of 60% females (n=9) and 40% males (n=6). The criteria for inclusion of MS patients in the study were: (i) age 18 to 65 years; (ii) fulfillment of the McDonald criteria for definite MS (McDonald et al., 2001; Polman et al., 2005); (iii) relapsing-remitting course; (iv) having newly diagnosed MS, or MS not treated with currently used immunomodulatory drugs (interferon-β or glatiramer acetate) for 3 months prior to study entry; (v) no exacerbations in the 4 weeks before the study; (vi) no i.v. or p.o. steroids for 4 weeks prior to study enrollment; (vii) no treatment with Tysabri, Gilenya, mitoxantrone, cyclophosphamide, or any investigational drug during the past year; and (viii) a disability score of 0-5.5, as defined by the expanded disability status scale (EDSS) (Kurtzke, 1983). […]
All MS patients received 20 mg of glatiramer acetate (GA) injected subcutaneously every day for 2 years. During this period of 2 years, patients were clinically evaluated and peripheral blood samples were collected at 0, 3, 6, and 12 months at the time of their outpatient visits. […]

The test system of the next assay is EAE. As to conditions: cited from earlier work.
The test system of the next assay is activated T cells. As to conditions: Singh et al., 2007; cited from earlier work.
In the next assay the test system is SIRT1 mRNA. Nature of the assay: SIRT1 mRNA expression in PBMCs from stable MS patients after sirtinol. The format is cell-based, human. As to conditions: sirtinol 200 μM, data not shown.
Assay [1] has as its system CD8+ T cells from an MS patient. Nature of the assay: Annexin V-FITC binding (early apoptosis) by FACS, CD8+ T cells from an MS patient. Type of assay: cell-based, human. As to conditions: sirtinol 200 μM, 24 h. The protocol: (§1) PBMCs and Jurkat cells were plated in RPMI-10% FBS in 12-well plates 24 h prior to Annexin V FITC FACS analysis. Some of the cells were treated with sirtinol (200 μM) and the binding of Annexin V-FITC to cells was compared with that of cells exposed to vehicle (DMSO) only. Annexin V assay was performed according to manufacturer instructions (BD Biosciences) and only Annexin V FITC positive, propidium iodide negative cells were used in the evaluations since they are reflecting early apoptosis.

The next assay concerns Jurkat cells. Nature of the assay: Annexin V-FITC binding (early apoptosis) by FACS, Jurkat cells. Type of assay: cell-based. As to conditions: sirtinol 200 μM, 24 h. The method, then:
as §1

Assay [2] has as its system CD4+ T cells from an MS patient. Nature of the assay: Annexin V-FITC binding (early apoptosis) by FACS, CD4+ T cells from an MS patient. Type of assay: cell-based, human. As to conditions: sirtinol 200 μM, 24 h. The protocol: as §1
For another assay, the system named is FasL. Nature of the assay: FasL expression by FACS analysis in PBMCs from a stable MS patient after sirtinol. The format is cell-based, human. As to conditions: sirtinol 200 μM. The protocol:
FIGS. 8A-8D. Effect of SIRT 1 inhibition on FasL expression. PBMCs from a stable MS patient (FIG. 8A, FIG. 8C) were pretreated with the SIRT1 inhibitor sirtinol (200 μM) for 24 h (FIG. 8B, FIG. 8D), cultured with CD4^+ (FIG. 8B) or CD8^+ (FIG. 8D) T cells, and expression of FasL was then determined by FACS analysis.

“Also recorded” adds a separate entry of the source.

Protocol for SIRT1 mRNA: PBMCs were collected using BD Vacutainer CPT tubes (Becton Dickinson, Franklin Lakes, N.J.). […] Total RNA was purified using the RNeasy Mini Kit (Qiagen, Santa Clarita, Calif.) according to the manufacturer's instructions. RNA (0.5 μg per sample) was mixed with RT buffer, dNTP, and oligo-dT primer (Invitrogen). RNA was denatured by incubation at 65° C. for 5 min. The reverse transcriptase (Promega) and RNase inhibitor (Invitrogen) were then added, and the reaction mixture was incubated at 37° C. for 1 h. The reaction was terminated by incubating the mixture at 95° C. for 5 min (Tegla et al., 2013). […]
As a negative control for each real-time PCR assay, the same reaction was performed in the absence of cDNA or reverse transcriptase. For each gene, the cycle threshold (CT) values were determined in the exponential phase of the amplification plot and normalized by subtraction of the CT value for 18S (generating a ΔCT value). […] A standard curve was generated using serial dilutions of qPCR Reference Total cDNA (Clontech, Mountain View, Calif.), and the normalized mRNA value (NRV) was calculated according to the following formula for relative expression of target mRNA: NRV (TarS/L13), where TarS represents the level of mRNA expression of the target gene, and L13 corresponds to that of the amplified L13 mRNA. […]

Regarding glatiramer acetate [GA], in the assay on RRMS, the “non-responders (2 or more relapse events during the 2 year span)” value was found to be 4 and the “responders (0 or no more than 1 relapse event during the 2 year span)” value stood at 11.

Consider `Oc1ccc(C=Cc2cc(O)cc(O)c2)cc1` [resveratrol], for which the “disease course in EAE” value with EAE (Nimmagadda et al., 2013) is on record as “ameliorates the disease course”. The “spinal cord inflammation during EAE” value with EAE (Singh et al., 2007) is recorded as “decrease in spinal cord inflammation”. The “apoptosis in activated T cells” value in the assay on activated T cells is listed as “trigger apoptosis”.

As to `CC(NC(=O)c1ccccc1/N=C/c1c(O)ccc2ccccc12)c1ccccc1` (stereo not drawn) [sirtinol], the “inhibition of the expression of SIRT1 mRNA” value with SIRT1 mRNA came out at 50%. Also, the “Annexin V binding / apoptosis, in words” value (in assay [1] (CD8+ T cells from an MS patient); in the assay on Jurkat cells; in assay [2] (CD4+ T cells from an MS patient)) was “significant apoptosis; also recorded: significant increase in Annexin V binding” in each case. Moreover, the “apoptosis (Annexin V binding)” value in assay [1] (CD8 cells, control cells 22%) is reported as 81%; in assay [2] (CD4 cells, control cells 6%), 55%. Further, in the assay with Jurkat cells (vehicle DMSO control 6%), the “cells binding Annexin V” value was found to be 65%. Besides, the FasL expression result is “significant increase” with FasL (CD4+ T cells, 24 h); “significant increase” with FasL (CD8+ T cells, 24 h); “significantly increased” in the assay with FasL (PBMCs from stable MS patients).
